Experiment: solubility of FDCA in water at different temperatures
Type: physicochemical
Conditions: ambient pressure, as water temperature increases beyond 130° C. (FIG. 2)
Description: FIG. 2 depicts the solubility of FDCA in water at different temperatures.
Suitable dissolution temperatures are those effective to dissolve the desired amount of FDCA solids into solution. The hydrogenation solvent composition may be added at (by pre-heating) or heated in the dissolution zone to a temperature of at least 120° C. under a pressure and time sufficient to allow for at least 80 wt. % dissolution, although to reduce the time required for dissolution, it is desirable that the hydrogenation solvent composition temperature is at least 130° C., or at least 135° C., or at least 140° C., or at least 150° C.

- solubility of FDCA in water: increases dramatically
SMILES: O=C(O)c1ccc(C(=O)O)o1 [FDCA, Furan 2,5-dicarboxylic acid]

Source: patent publication US9458122B2, “Process for purifying crude furan 2,5-dicarboxylic acid using hydrogenation” (Eastman Chemical Company, priority 2012, dated 2016)
